# Where a name gives a salt, the structure may show the parent alone.
# What was measured:
# people = test system: people; set-up: method as in Knight et al., 2009; conditions: placebo approximately 9%; ref Knight et al., 2009; cited from earlier work
# α4β2* nAChRs = test system: α4β2* nAChRs; set-up: method as in earlier work; conditions: agonist-induced signaling; ref Wang et al., 2015; Grupe et al., 2013; Appiani et al., 2024; Jin et al., 2014; read-out: EC50 on α4β2* nAChR signaling; cited from earlier work
# rats = test system: rats; set-up: method as in Maurer et al., 2017; conditions: ref Maurer et al., 2017; cited from earlier work
# [1] = molecular target: T1, human (α4)2(β2)2α5 nAChRs (Homo sapiens, UniProt P17787+P30532+P43681); test: FLEXstation membrane potential assay in HEK cells stably expressing (α4)2(β2)2α5 nAChRs; assay type: cell-based; conditions: nicotine 0.001–50 μM, ±SEM
# T1 construct: expressed in transfected cells
# T1 sequence (P43681 29-627 limits assumed): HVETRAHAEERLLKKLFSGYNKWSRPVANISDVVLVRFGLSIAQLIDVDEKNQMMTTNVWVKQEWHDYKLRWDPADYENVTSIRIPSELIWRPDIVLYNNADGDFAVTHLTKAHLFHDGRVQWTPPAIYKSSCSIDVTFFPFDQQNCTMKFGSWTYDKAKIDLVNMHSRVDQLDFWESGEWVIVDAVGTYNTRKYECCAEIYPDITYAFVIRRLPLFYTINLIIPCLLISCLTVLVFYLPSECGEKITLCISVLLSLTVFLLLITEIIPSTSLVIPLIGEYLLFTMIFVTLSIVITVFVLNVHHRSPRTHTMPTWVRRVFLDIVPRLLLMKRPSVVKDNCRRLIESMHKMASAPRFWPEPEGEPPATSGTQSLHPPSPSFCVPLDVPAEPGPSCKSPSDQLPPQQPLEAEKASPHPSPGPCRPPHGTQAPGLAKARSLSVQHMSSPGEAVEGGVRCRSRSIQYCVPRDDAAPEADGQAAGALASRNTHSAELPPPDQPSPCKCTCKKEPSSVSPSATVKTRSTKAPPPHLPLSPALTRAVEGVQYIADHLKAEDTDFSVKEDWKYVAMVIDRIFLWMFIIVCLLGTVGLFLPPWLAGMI
# T1 sequence (P17787 26-502): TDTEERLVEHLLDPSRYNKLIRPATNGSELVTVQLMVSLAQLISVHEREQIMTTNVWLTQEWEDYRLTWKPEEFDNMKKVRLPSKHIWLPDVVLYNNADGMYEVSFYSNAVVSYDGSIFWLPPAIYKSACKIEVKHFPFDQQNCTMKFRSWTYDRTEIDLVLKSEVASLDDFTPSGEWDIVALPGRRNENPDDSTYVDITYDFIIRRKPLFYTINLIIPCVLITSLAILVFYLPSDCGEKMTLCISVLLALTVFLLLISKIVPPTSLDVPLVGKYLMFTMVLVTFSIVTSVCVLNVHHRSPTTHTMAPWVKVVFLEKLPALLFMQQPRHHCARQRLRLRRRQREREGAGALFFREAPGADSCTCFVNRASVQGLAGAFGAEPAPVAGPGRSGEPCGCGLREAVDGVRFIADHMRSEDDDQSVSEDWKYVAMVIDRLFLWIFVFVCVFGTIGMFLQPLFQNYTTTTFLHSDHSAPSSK
# T1 sequence (P30532 23-468): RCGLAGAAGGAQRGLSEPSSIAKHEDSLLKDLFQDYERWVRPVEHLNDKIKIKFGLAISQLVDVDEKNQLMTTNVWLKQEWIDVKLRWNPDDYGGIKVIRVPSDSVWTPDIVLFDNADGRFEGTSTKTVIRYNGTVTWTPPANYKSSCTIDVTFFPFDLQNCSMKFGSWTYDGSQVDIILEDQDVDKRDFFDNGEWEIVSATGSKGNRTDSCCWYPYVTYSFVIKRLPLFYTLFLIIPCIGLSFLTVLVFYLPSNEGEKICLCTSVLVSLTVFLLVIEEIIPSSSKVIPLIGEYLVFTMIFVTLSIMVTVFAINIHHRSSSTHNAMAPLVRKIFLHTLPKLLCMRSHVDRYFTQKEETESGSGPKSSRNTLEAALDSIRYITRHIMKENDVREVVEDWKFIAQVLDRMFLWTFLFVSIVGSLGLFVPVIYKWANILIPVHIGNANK
# Excerpt: (§1) Human embryonic kidney (HEK) cell lines stably expressing human (α4)2(β2)2β2/α4 (α4β2*) nAChRs, (α4)2(β2)2α5 nAChRs, (α4)2(β2)2β3 nAChRs, (α3)2(β4)2α3/β4 (α3β4*) nAChRs, (α3)2(β2)2α3/β2 (α3β2*) nAChRs, (α3)2(β4)2α5 nAChRs, or (α3)2(β2)2α5 nAChRs were maintained as described previously ([Wang et al., 2015]; [Kuryatov et al., 2005]; [Caligiuri et al., 2022]). The FLEXstation bench top scanning fluorometer from Molecular Devices was used to assay nAChR function in these cells, according to published protocols ([Wang et al., 2015]; [Kuryatov et al., 2005]). The membrane potential kit (Molecular Devices) was used according to the manufacturer’s protocols. Serial dilutions of SR9883 were manually added to the assay plate 15 min prior to recording. […] Compound dilutions were prepared in V-shaped 96-well plates (Fisher Scientific Co.) and added to cell culture wells at a rate of 20 μL s^−1 during recording. Cells were incubated at 29°C for 6–20 h prior to assays to upregulate nAChRs ([Wang et al., 2015]; [Kuryatov et al., 2005]). Data points were averaged from 3 to 4 responses from separate wells. Potency and efficacy were calculated using the Hill equation as described previously ([Wang et al., 2015]).
# (§2) Concentration-response curves of SR9883 actions in nAChR-expressing HEK cells and oocytes were fitted to the Hill equation using a nonlinear least squares curve fit method and efficacy and potency values were calculated as previously described ([Wang et al., 2015]). Plasma and brain levels of SR9983 after oral administration were compared using a two-tailed paired t test. […] For the ICSS threshold experiment, percentages of baseline reward threshold scores were calculated by expressing the absolute threshold scores as a percentage of the scores obtained during baseline. The baseline values were the mean thresholds on the three sessions prior to drug injections. Response latency data were analyzed in the same manner as the threshold data. […] Effects of SR9883 on responding for food pellets in rats was analyzed by a two-tailed paired t test. […] Significant main or interaction effects in ANOVAs were followed by Bonferroni or Newman–Keuls post-hoc tests as appropriate. All statistical analyses were performed using GraphPad Prism software with α set to 0.05.
# [2] = molecular target: human (α4)2(β2)2β2/α4 (α4β2*) nAChRs (Homo sapiens, UniProt P17787+P43681); test: FLEXstation membrane potential assay in HEK cells stably expressing α4β2* nAChRs; assay type: cell-based; conditions: nicotine 0.001–50 μM, ±SEM
# Chain of human (α4)2(β2)2β2/α4 (α4β2*) nAChRs (P43681 27-627): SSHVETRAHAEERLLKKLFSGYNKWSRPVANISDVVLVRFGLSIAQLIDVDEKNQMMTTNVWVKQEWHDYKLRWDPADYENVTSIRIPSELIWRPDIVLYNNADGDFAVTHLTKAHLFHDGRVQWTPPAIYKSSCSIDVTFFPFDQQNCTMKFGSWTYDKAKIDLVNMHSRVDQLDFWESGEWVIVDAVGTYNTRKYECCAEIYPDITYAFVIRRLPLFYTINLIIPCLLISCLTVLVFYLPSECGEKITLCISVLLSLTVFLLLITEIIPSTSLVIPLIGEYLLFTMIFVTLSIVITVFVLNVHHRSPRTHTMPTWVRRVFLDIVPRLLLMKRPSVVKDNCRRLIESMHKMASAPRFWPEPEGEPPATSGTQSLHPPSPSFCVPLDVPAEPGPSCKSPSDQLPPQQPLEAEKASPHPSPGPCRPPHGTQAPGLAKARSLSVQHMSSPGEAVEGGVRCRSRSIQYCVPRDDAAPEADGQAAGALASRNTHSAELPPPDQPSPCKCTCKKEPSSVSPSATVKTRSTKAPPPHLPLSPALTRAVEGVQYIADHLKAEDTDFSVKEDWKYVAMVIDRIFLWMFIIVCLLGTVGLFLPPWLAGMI
# Chain of human (α4)2(β2)2β2/α4 (α4β2*) nAChRs (P17787 26-502): as the sequence (P17787 26-502) above
# Excerpt: as §1, §2
smiles,measurement,setting,value
"c1cnc2cc3c(cc2n1)[C@@H]1CNC[C@H]3C1 [Chantix, varenicline]",People remaining abstinent after 1 year of a quit attempt,people,approximately 23%
"CC(NC(C)(C)C)C(=O)c1cccc(Cl)c1 (stereo not drawn) [Zyban, bupropion]",People remaining abstinent after 1 year of a quit attempt,people,~16%
"N#Cc1cccc(-c2nc(-c3cccnc3)no2)c1 [NS9283, 3-[3-(3-pyridyl)-1,2,4-oxadiazol-5-yl]benzonitrile]",EC50,α4β2* nAChRs,~1 µM
same,Intravenous nicotine self-administration behavior,rats,decrease
"CN1CCC[C@H]1c1cccnc1 [nicotine, (−)-Nicotine hydrogen tartrate salt, reference compound]",Efficacy,[1]; +SR9883 (10 μM),92.69 ± 2.19%
same,nHill of nicotine,[1]; +SR9883 (10 μM),1.2934 ± 0.1439
same,Efficacy,[1]; −SR9883,100.49 ± 3.89%
same,nHill of nicotine,[1]; −SR9883,0.7395 ± 0.0767
same,Efficacy,[2]; +SR9883 (10 μM),87.20 ± 1.68%
same,nHill of nicotine,[2]; +SR9883 (10 μM),1.0749 ± 0.0928
same,Efficacy,[2]; −SR9883,96.89 ± 2.82%
same,nHill of nicotine,[2]; −SR9883,0.8145 ± 0.0740

# From publication PMC11428108 (Frontiers in Molecular Neuroscience, 2024)
